The target of this experiment is T1, human LMPTP-A (Homo sapiens, UniProt P24666).
T1 sequence (P24666 1-158): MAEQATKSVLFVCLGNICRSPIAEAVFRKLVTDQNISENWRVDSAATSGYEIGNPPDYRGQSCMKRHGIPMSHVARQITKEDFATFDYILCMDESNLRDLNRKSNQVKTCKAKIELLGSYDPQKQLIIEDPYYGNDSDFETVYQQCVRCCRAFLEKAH
Briefly: Enzyme Assay of Inhibition of LMPTP-A. In kind it is biochemical. The conditions noted are these: phosphatase assay, OMFP or pNPP substrate, 50 mM Bis-Tris pH 6.0, 37° C. The method in brief:
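Recombinant human LMPTP-A in 50 mM Bis-Tris pH 6.0, 1 mM DTT, 0.01% Triton X-100 at 37° C. Substrate OMFP read continuously by fluorescence (485/525 nm), or pNPP stopped with NaOH and read at 405 nm. IC50 taken from inhibitor concentration versus % activity plots.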

Drawing on patent US20200338084A1, “INHIBITORS OF LOW MOLECULAR WEIGHT PROTEIN TYROSINE PHOSPHATASE (LMPTP) AND USES THEREOF” (Sanford Burnham Prebys Medical Discovery Institute, priority 2018, published 2020), this text covers IC50 for 42 molecules.

Bounds are passed on as bounds.

Consider `Clc1cccc(Cl)c1Cn1cnc(NCc2ccco2)c2ncnc1-2` [[3-(2,6-Dichloro-benzyl)-3H-purin-6-yl]-furan-2-ylmethyl-amine], for which the IC50 – broadly, the concentration at which inhibition is half-maximal – lay in the range of 1 to 20 µM. With `CNc1ncn(Cc2c(Cl)cccc2Cl)c2ncnc1-2` [[3-(2,6-Dichloro-benzyl)-3H-purin-6-yl]-methyl-amine] the figure was 1 to 20 µM; with `Clc1cccc(Cl)c1Cn1cnc(NCc2cnco2)c2ncnc1-2` [[3-(2,6-Dichloro-benzyl)-3H-purin-6-yl]-oxazol-5-ylmethyl-amine], 1 to 20 µM; with `CCCCCNc1ncn(Cc2c(Cl)cccc2Cl)c2ncnc1-2` [[3-(2,6-Dichloro-benzyl)-3H-purin-6-yl]-pentyl-amine], 1 to 20 µM.

For `CCCNc1ncn(Cc2c(Cl)cccc2Cl)c2ncnc1-2` [[3-(2,6-Dichloro-benzyl)-3H-purin-6-yl]-propyl-amine], the IC50 was 1 to 20 µM. With `Clc1cccc(Cl)c1Cn1cnc(NCc2ccccn2)c2ncnc1-2` [[3-(2,6-Dichloro-benzyl)-3H-purin-6-yl]-pyridin-2-ylmethyl-amine] the figure was 1 to 20 µM; with `Clc1cccc(Cl)c1Cn1cnc(NCc2cccnc2)c2ncnc1-2` [[3-(2,6-Dichloro-benzyl)-3H-purin-6-yl]-pyridin-3-ylmethyl-amine], 1 to 20 µM; with `Clc1cccc(Cl)c1Cn1cnc(NCc2ccncc2)c2ncnc1-2` [[3-(2,6-Dichloro-benzyl)-3H-purin-6-yl]-pyridin-4-ylmethyl-amine], 1 to 20 µM. With `Clc1cccc(Cl)c1Cn1cnc(NCc2cccs2)c2ncnc1-2` [[3-(2,6-Dichloro-benzyl)-3H-purin-6-yl]-thiophen-2-ylmethyl-amine] the figure was 1 to 20 µM; with `Fc1cccc(F)c1Cn1cnc(NCc2ccco2)c2ncnc1-2` [[3-(2,6-Difluoro-benzyl)-3H-purin-6-yl]-furan-2-ylmethyl-amine], 1 to 20 µM; with `Brc1ccccc1Cn1cnc(NCc2ccco2)c2ncnc1-2` [[3-(2-Bromo-benzyl)-3H-purin-6-yl]-furan-2-ylmethyl-amine], 1 to 20 µM. With `Fc1cccc(Cl)c1Cn1cnc(NCc2ccco2)c2ncnc1-2` [[3-(2-Chloro-6-fluoro-benzyl)-3H-purin-6-yl]-furan-2-ylmethyl-amine] the figure was 1 to 20 µM; with `Clc1ccccc1Cn1cnc(NCc2ccco2)c2ncnc1-2` [[3-(2-Chloro-benzyl)-3H-purin-6-yl]-furan-2-ylmethyl-amine], no less than 20 µM. `Fc1ccccc1Cn1cnc(NCc2ccco2)c2ncnc1-2` [[3-(2-Fluoro-benzyl)-3H-purin-6-yl]-furan-2-ylmethyl-amine] came in with an IC50 of no less than 20 µM. With `Clc1cccc(Cn2cnc(NCc3ccco3)c3ncnc2-3)c1` [[3-(3-Chloro-benzyl)-3H-purin-6-yl]-furan-2-ylmethyl-amine] the figure was no less than 20 µM; with `Clc1ccc(Cn2cnc(NCc3ccco3)c3ncnc2-3)cc1` [[3-(4-Chloro-benzyl)-3H-purin-6-yl]-furan-2-ylmethyl-amine], no less than 20 µM; with `Fc1ccc(Cn2cnc(NCc3ccco3)c3ncnc2-3)cc1` [[3-(4-Fluoro-benzyl)-3H-purin-6-yl]-furan-2-ylmethyl-amine], no less than 20 µM. Molecule `Cc1cccc(Nc2ncn(Cc3c(Cl)cccc3Cl)c3ncnc2-3)c1C` [{3-[(2,6-Dichlorophenyl)methyl](3-hydropurin-6-yl)}(2,3-dimethylphenyl)amine] registered an IC50 of 1 to 20 µM. With `Cc1cccc(C)c1Nc1ncn(Cc2c(Cl)cccc2Cl)c2ncnc1-2` [{3-[(2,6-Dichlorophenyl)methyl](3-hydropurin-6-yl)}(2,6-dimethylphenyl)amine] the figure was 1 to 20 µM. With `Fc1ccccc1Nc1ncn(Cc2c(Cl)cccc2Cl)c2ncnc1-2` [{3-[(2,6-Dichlorophenyl)methyl](3-hydropurin-6-yl)}(2-fluorophenyl)amine] the figure was 1 to 20 µM; with `COc1ccccc1Nc1ncn(Cc2c(Cl)cccc2Cl)c2ncnc1-2` [{3-[(2,6-Dichlorophenyl)methyl](3-hydropurin-6-yl)}(2-methoxyphenyl)amine], 1 to 20 µM; with `Cc1ccccc1Nc1ncn(Cc2c(Cl)cccc2Cl)c2ncnc1-2` [{3-[(2,6-Dichlorophenyl)methyl](3-hydropurin-6-yl)}(2-methylphenyl)amine], 1 to 20 µM. With `Clc1cccc(Cl)c1Cn1cnc(Nc2ccccc2N2CCOCC2)c2ncnc1-2` [{3-[(2,6-Dichlorophenyl)methyl](3-hydropurin-6-yl)}(2-morpholin-4-ylphenyl)amine] the figure was no less than 20 µM; with `Clc1cccc(Cl)c1Cn1cnc(NCCN2CCCCC2)c2ncnc1-2` [{3-[(2,6-Dichlorophenyl)methyl](3-hydropurin-6-yl)}(2-piperidylethyl)amine], no less than 20 µM. In turn, `Clc1cccc(Nc2ncn(Cc3c(Cl)cccc3Cl)c3ncnc2-3)c1` [{3-[(2,6-Dichlorophenyl)methyl](3-hydropurin-6-yl)}(3-chlorophenyl)amine] gave an IC50 of 1 to 20 µM.

In turn, `Fc1cccc(Nc2ncn(Cc3c(Cl)cccc3Cl)c3ncnc2-3)c1` [{3-[(2,6-Dichlorophenyl)methyl](3-hydropurin-6-yl)}(3-fluorophenyl)amine] returned an IC50 of 1 to 20 µM. With `COc1cccc(Nc2ncn(Cc3c(Cl)cccc3Cl)c3ncnc2-3)c1` [{3-[(2,6-Dichlorophenyl)methyl](3-hydropurin-6-yl)}(3-methoxyphenyl)amine] the figure was 1 to 20 µM; with `Cc1cccc(Nc2ncn(Cc3c(Cl)cccc3Cl)c3ncnc2-3)c1` [{3-[(2,6-Dichlorophenyl)methyl](3-hydropurin-6-yl)}(3-methylphenyl)amine], 1 to 20 µM.

In the case of `Clc1cccc(Cl)c1Cn1cnc(Nc2ccc(Br)cc2)c2ncnc1-2` [{3-[(2,6-Dichlorophenyl)methyl](3-hydropurin-6-yl)}(4-bromophenyl)amine], the half-maximal inhibitory concentration (IC50) lay within 1 to 20 µM.

Molecule `Fc1ccc(Nc2ncn(Cc3c(Cl)cccc3Cl)c3ncnc2-3)cc1` [{3-[(2,6-Dichlorophenyl)methyl](3-hydropurin-6-yl)}(4-fluorophenyl)amine] returned an IC50 of 1 to 20 µM. Consider `Cc1ccc(Nc2ncn(Cc3c(Cl)cccc3Cl)c3ncnc2-3)cc1` [{3-[(2,6-Dichlorophenyl)methyl](3-hydropurin-6-yl)}(4-methylphenyl)amine], for which the IC50 was in the range of 1 to 20 µM.

`Clc1cccc(Cl)c1Cn1cnc(Nc2ccc(N3CCOCC3)cc2)c2ncnc1-2` [{3-[(2,6-Dichlorophenyl)methyl](3-hydropurin-6-yl)}(4-morpholin-4-ylphenyl)amine] came in with an IC50 of 1 to 20 µM. With `O=[N+]([O-])c1ccc(Nc2ncn(Cc3c(Cl)cccc3Cl)c3ncnc2-3)cc1` [{3-[(2,6-Dichlorophenyl)methyl](3-hydropurin-6-yl)}(4-nitrophenyl)amine] the figure was 1 to 20 µM; with `CCCc1ccc(Nc2ncn(Cc3c(Cl)cccc3Cl)c3ncnc2-3)cc1` [{3-[(2,6-Dichlorophenyl)methyl](3-hydropurin-6-yl)}(4-propylphenyl)amine], 1 to 20 µM; with `CC(C)(C)c1ccccc1Nc1ncn(Cc2c(Cl)cccc2Cl)c2ncnc1-2` [{3-[(2,6-Dichlorophenyl)methyl](3-hydropurin-6-yl)}[2-(tert-butyl)phenyl]amine], no less than 20 µM. With `CC(C)(C)c1cccc(Nc2ncn(Cc3c(Cl)cccc3Cl)c3ncnc2-3)c1` [{3-[(2,6-Dichlorophenyl)methyl](3-hydropurin-6-yl)}[3-(tert-butyl)phenyl]amine] the figure was 1 to 20 µM. With `Clc1cccc(Cl)c1Cn1cnc(Nc2ccccc2)c2ncnc1-2` [{3-[(2,6-Dichlorophenyl)methyl](3-hydropurin-6-yl)}phenylamine] the figure was 1 to 20 µM. Regarding `Clc1ccccc1Nc1ncn(Cc2c(Cl)cccc2Cl)c2ncnc1-2` [{3-[(2,6-Dichlorophenyl)methyl](3-hydropurine-6-yl)}(2-chlorophenyl)amine], the IC50 is no more than 1 µM. With `COc1ccc(CNc2ncn(Cc3c(Cl)cccc3Cl)c3ncnc2-3)cc1` [{3-[(2,6-dichlorophenyl)methyl](3-hydropurin-6-yl)}[(4-methoxyphenyl)methyl]amine] the figure was 1 to 20 µM; with `Cc1ccc(S(=O)(=O)Nc2ncn(Cc3c(Cl)cccc3Cl)c3ncnc2-3)cc1` [{3-[(2,6-dichlorophenyl)methyl](3-hydropurin-6-yl)}[(4-methylphenyl)sulfonyl]amine], no less than 20 µM; with `Cc1ccc(CNc2ncn(Cc3c(Cl)cccc3Cl)c3ncnc2-3)o1` [{3-[(2,6-dichlorophenyl)methyl](3-hydropurin-6-yl)}[(5-methyl(2-furyl))methyl]amine], 1 to 20 µM. With `O=S(=O)(Cc1cccc(F)c1)Nc1ncn(Cc2c(Cl)cccc2Cl)c2ncnc1-2` [{3-[(2,6-dichlorophenyl)methyl](3-hydropurin-6-yl)}{[(3-fluorophenyl)methyl]sulfonyl}amine] the figure was no less than 20 µM.
